What all share (format): in vivo, mouse
For test [1], the system named is Gabrb3^ECKO endothelial cells. Nature of the test: GABA immunostaining and cluster formation of endothelial cells after prenatal treatment. As for the experimental part:
Primary culture of endothelial cells and endothelial cell staining: Embryonic brains were dissected under a stereo-microscope, after the NAD^+ treatment paradigm and the telencephalon was removed. Pial membranes were peeled off. Telencephalon without pial membranes from the periventricular region was pooled. Purity of endothelial cell cultures was established with endothelial cell markers and determined to be one hundred percent. Isolation and culture of endothelial cells were performed according to published methodology. Periventricular endothelial cells were prepared from CD1 (wild type), saline-treated Gabrb3^fl/fl, saline-treated Gabrb3^ECKO, and NAD^+-treated Gabrb3^ECKO embryos. Endothelial cells were labeled with anti-biotinylated isolectinB4 (1:100, Sigma), anti-GABA (1:400, Sigma), anti-DAXX (1:100, Santa Cruz Biotechnology) and anti-P2X4 (1:100, Abclonal) followed by secondary detection with AlexaFluor conjugates (Invitrogen). DAPI (Invitrogen) was used to label nuclei. Images were taken on an FSX100 microscope (Olympus). 1 million cells were examined for each immunohistochemistry condition.
Endothelial cell derived GABA plays dual roles in the embryonic forebrain. […]

The next test deals with Gabrb3^fl/fl littermates. Nature of the test: Prenatal NAD+ treatment, H&E of MGE in Gabrb3^fl/fl littermates. The settings on record: NAD^+-treated Gabrb3^fl/fl littermates. As for the experimental part: Histology, immunohistochemistry, and microscopic analysis: Paraffin immunohistochemistry (IHC) was performed on embryonic brains only while frozen section IHC was used on both embryonic and adult brains. Briefly, for paraffin IHC-E18 brains were fixed in zinc fixative (BD Biosciences PharMingen) for 24 h and processed for paraffin histology. Histological stainings with hematoxylin (Vector Laboratories) and eosin (Sigma) were performed on 8 μm coronal sections. Lectin histochemistry (with biotinylated isolectin B4, 1:50, Sigma) as well as IHC was performed on 20 μm sections. Primary antibodies used for IHC were as follows: anti-PHH3 (1:200, Millipore) and anti-NKX2.1, (1:50; Sigma) followed by secondary detection with AlexaFluor conjugates (Invitrogen). DAPI (Vector Laboratories) was used to label nuclei. For frozen section IHC, E18 and P90 brains were removed, fixed in 4% PFA for 24 hours, cryo-protected in sucrose gradient, embedded into OCT medium for frozen blocks; sectioned at 40 μm on a cryostat and immunostained with anti-GABA (1:80, Sigma) and anti -PROX1 (1:80, Millipore) antibodies. Twenty sections from each brain were used for IHC and histology experiments. Uniform penetration of antibodies or stains throughout the section was ascertained and quality of the staining in each digital section was examined. […]

Test [2] concerns Gabrb3^ECKO telencephalon. In words: Microarray gene expression profile of MGE and striatal tissue at E18. As for the experimental part:
Gene expression profile analysis: RNA samples were prepared from saline-treated Gabrb3^fl/fl, saline-treated Gabrb3^ECKO and NAD^+-treated Gabrb3^ECKO groups from three different brain pools. Total RNA from each of the samples was extracted by using the PicoPure RNA Isolation kit (Arcturus) following the supplier's protocol. Microarray was performed with Mouse Gene 2.0 ST Array (Affymetrix) at the Boston University Microarray & Sequencing Resource, Boston, MA. Mouse Gene 2.0 ST CEL files were normalized to produce gene-level expression values using the implementation of the Robust Multiarray Average (RMA) in the affy package (version 1.36.1) included in the Bioconductor software suite (version 2.11). Principal component analysis (PCA) was analyzed and visualized using Transcriptome Analysis Console 4.0 (Affymetrix). Heatmap visualization and analysis were performed using Morpheus (Broad Institute, Boston, Mass., USA; software.broadinstitute.org/GENE-E/), and ranked by t-test statistics. Violin plot visualization was generated with Z-score using GraphPad Prism v8.0 (GraphPad Software, La Jolla Calif. USA). The gene ontology for gene enrichment study was performed in three GO TERM annotation categories by using the Database for Annotation, Visualization and Integrated Discovery (DAVID) v6.8. Mouse Genome Informatics (MGI) (GO TERM structure categories: cerebral cortex interneuron migration; GABAergic neuron differentiation; interneuron development; MGE derived cells).
In this exemplary embodiment, to gain deeper insights into NAD^+ mediated specific actions in the subcortical telencephalon, a micro-dissection of the MGE and striatal tissue from telencephalic slices of saline-treated Gabrb3^fl/fl mice, saline-treated Gabrb3^ECKO mice, and NAD^+-treated Gabrb3^ECKO mice at E18 was performed. RNA was further extracted, and microarray hybridization on Mouse Gene 2.0 ST arrays (Affymetrix) was performed for Subsequent gene expression analysis (FIG. 7A). Principal component analysis (PCA) plots depicted strict clustering of triplicates from the three samples in the 3D PCA table (FIG. 8A). Differentially expressed genes (fold change cut off ≥+/−50%) in the three groups were compared and represented as heat maps (FIGS. 7B-7C). […] Genes were further classified into specific categories that are essential for embryonic forebrain development: angiogenesis, neurogenesis, GABA signaling and GABA transcription related genes, and the top differentially expressed genes in each category are shown (FIGS. 9A-9E). […] Additionally, differential expression of 10 marker genes in angiogenesis and GABAergic neuron categories in saline-treated Gabrb3^fl/fl, saline-treated Gabrb3^ECKO, and NAD^+-treated Gabrb3^ECKO groups were represented as violin plots (FIGS. 7D-7G).

Consider `NC(=O)c1ccc[n+]([C@@H]2O[C@H](COP(=O)([O-])OP(=O)(O)OC[C@H]3O[C@@H](n4cnc5c(N)ncnc54)[C@H](O)[C@@H]3O)[C@@H](O)[C@H]2O)c1` [NAD^+], for which, in test [1], the “GABA expression (immunohistochemistry)” value is “GABA expression was also restored” and the “endothelial cell cluster formation” value is “significantly improved cluster formation”. Besides, the “cellular arrangement in MGE (H&E)” value in the test with Gabrb3^fl/fl littermates is recorded as “the same distinct cellular arrangement in the MGE”. Moreover, in test [2] (E18), the “GABA neuronal subtype and development genes downregulated in Gabrb3^ECKO (Calb2, Sst, Calb1, Sirt2, Ascl1, Nr2f2, Bdnf, Arx, Sox2)” value is “rescued”; the “GABAergic pathway regulatory and axon guidance genes upregulated in Gabrb3^ECKO (Dlx4, Sirt1, Drp2, Foxg1, Daxx, Ablim1, Nrg3)” value is “restored to normal expression levels”; the “angiogenesis genes downregulated in Gabrb3^ECKO (Fgfr3, Thbs1, Serpinf1, Tbx1, Angpt1, Mdk, Plxdc1, Efna1, Tspan12)” value is listed as “restored to normal levels”; the “genes related to inflammation (upregulated in saline-treated Gabrb3^ECKO)” value is on record as “restored to normal levels”. Further, the “vascular/angiogenesis genes upregulated in Gabrb3^ECKO (Fgf6, Flt1, Hand2, Egf, Itgb3, Plg, Epas1, Bai1, Col4a3, Eng)” value in test [2] (E18) is “restored to normal expression levels”. Moreover, the “purinergic receptor signaling genes (microarray)” value in test [2] (vs saline-treated Gabrb3^ECKO group) was “notable change in purinergic receptor signaling genes”. The “gene expression profile (heat map clusters)” value in test [2] (vs saline-treated Gabrb3^ECKO, fold change cut off ≥+/−50%) was “shift in the gene expression profile”.
